# Experimental data: US20260357306A1, “ONE-POT FERMENTATIVE PRODUCTION OF GLYCOLATE OR OTHER HYDROXYCARBOXYLIC ACIDS” (PHYCUS BIOTECHNOLOGIES INC., priority 2023, published 2026)
# T1: Escherichia coli aldehyde dehydrogenase ecoALDH (aldA), SEQ ID NO: 265 (Escherichia coli, UniProt P25553)
# T1 construct: made in house; host or cells: E. coli BL21 (DE3)
# T1 sequence (P25553 1-479): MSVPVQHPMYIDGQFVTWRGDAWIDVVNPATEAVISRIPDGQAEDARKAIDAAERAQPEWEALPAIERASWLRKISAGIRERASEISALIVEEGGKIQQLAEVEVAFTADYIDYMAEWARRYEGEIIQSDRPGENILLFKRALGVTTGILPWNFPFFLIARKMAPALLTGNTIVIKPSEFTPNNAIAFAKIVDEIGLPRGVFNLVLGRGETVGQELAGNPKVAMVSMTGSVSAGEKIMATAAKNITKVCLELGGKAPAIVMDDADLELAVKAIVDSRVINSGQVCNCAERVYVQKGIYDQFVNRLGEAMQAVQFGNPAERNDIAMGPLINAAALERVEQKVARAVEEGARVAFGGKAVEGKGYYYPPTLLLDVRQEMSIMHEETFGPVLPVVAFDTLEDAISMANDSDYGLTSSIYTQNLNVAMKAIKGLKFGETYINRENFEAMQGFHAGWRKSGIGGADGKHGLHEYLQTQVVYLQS
# T2: Azotobacter vinelandii aldehyde dehydrogenase aviALDH, SEQ ID NO: 266 (Azotobacter vinelandii, UniProt C1DMY3)
# T2 sequence (C1DMY3 1-477): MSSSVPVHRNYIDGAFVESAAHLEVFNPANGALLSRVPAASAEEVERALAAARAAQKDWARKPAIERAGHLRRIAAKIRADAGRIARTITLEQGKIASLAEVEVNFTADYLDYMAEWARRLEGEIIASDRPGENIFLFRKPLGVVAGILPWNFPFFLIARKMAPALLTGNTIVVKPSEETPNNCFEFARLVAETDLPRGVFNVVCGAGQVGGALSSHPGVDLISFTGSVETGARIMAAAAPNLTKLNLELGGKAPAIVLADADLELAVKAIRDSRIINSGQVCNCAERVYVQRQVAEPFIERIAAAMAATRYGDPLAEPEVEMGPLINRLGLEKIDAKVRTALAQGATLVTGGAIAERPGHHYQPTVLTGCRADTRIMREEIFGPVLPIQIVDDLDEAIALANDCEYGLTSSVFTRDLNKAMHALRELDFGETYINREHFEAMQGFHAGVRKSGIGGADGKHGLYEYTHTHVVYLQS
# T3: Pseudomonas putida aldehyde dehydrogenase ppuALDH, SEQ ID NO: 267 (Pseudomonas putida, UniProt Q88K06)
# T3 sequence (Q88K06 1-503): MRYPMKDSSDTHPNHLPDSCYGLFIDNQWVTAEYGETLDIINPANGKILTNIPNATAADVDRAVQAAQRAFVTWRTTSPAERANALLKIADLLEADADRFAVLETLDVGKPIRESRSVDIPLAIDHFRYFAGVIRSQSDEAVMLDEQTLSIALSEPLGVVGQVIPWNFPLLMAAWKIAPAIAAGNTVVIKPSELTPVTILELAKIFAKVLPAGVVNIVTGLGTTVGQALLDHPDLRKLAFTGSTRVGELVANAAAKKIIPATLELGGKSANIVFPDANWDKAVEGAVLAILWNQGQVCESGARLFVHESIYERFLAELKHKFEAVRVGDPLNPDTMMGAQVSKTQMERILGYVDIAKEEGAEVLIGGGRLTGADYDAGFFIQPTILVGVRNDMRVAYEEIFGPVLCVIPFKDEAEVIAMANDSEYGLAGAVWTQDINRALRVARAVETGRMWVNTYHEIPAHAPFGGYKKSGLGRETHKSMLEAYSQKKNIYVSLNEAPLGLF
# What was measured:
# [1] = target: T1, Escherichia coli aldehyde dehydrogenase ecoALDH (aldA), SEQ ID NO: 265; assay: Aldehyde dehydrogenase (glycolaldehyde to glycolic acid) kinetics, ecoALDH; format: biochemical
# From the text: (§1) Enzyme expression and purification: The enzymes of interest were genetically engineered in the E. coli BL21 (DE3) strain on a high copy plasmid under control of the T7 promoter. The enzymes were tagged with a hexahistidine (His-tag) sequence to facilitate for purification. Post-expression, the His-tagged enzymes were selectively bound to a nickel-charged immobilized metal affinity chromatography (IMAC) resin, exploiting the high affinity between histidine residues and nickel ions. Upon washing away non-specifically bound proteins, the His-tagged enzymes were eluted with an imidazole-containing buffer and subsequently used for enzymatic assays.
# (§2) Enzyme assays: Standard enzyme characterization protocols were performed to determine the activities of the enzymes. Dehydrogenase activity against the substrates was determined using a continuous assay following the increase in absorbance at 340 nm ε340 (NADH)=6.22 mM^−1. cm^−1, and ε340 (NADPH)=6.2 mM^−1·cm^−1]. […]
# A second enzymatic step in the processes described herein relate to the conversion of an aliphatic polyhydric aldehyde substrate (e.g., glycolaldehyde) to a corresponding alpha-hydroxy acid (e.g., glycolic acid). […] The reaction was initiated by the addition of the purified enzyme, and activity was measured by monitoring the formation of glycolic acid over time. […]
# [2] = target: T2, Azotobacter vinelandii aldehyde dehydrogenase aviALDH, SEQ ID NO: 266; assay: Aldehyde dehydrogenase (glycolaldehyde to glycolic acid) kinetics, aviALDH; format: biochemical
# From the text: as §1
# (§3) Enzyme assays: Standard enzyme characterization protocols were performed to determine the activities of the enzymes. Dehydrogenase activity against the substrates was determined using a continuous assay following the increase in absorbance at 340 nm ε340 (NADH)=6.22 mM^−1. cm^−1, and ε340 (NADPH)=6.2 mM^−1·cm^−1]. Substrate screens were performed at 30 °C in a reaction mixture (200 μL) containing 50 mM of substrate in 100 mM Tris-HCl (pH 8.5), 1 mM NAD^+, 1 mM substrate, and 10 μg of purified protein. Initial velocity patterns of the enzymatic reaction were obtained by varying the concentrations of ethylene glycol at fixed concentrations of enzyme concentration in the presence of the saturating NAD concentrations.
# (§4) A second enzymatic step in the processes described herein relate to the conversion of an aliphatic polyhydric aldehyde substrate (e.g., glycolaldehyde) to a corresponding alpha-hydroxy acid (e.g., glycolic acid). E. coli aldehyde dehydrogenase aldA (ecoALDH) has been reported to catalyze the intracellular enzymatic conversion of glycolaldehyde (GA) to glycolic acid (e.g., Wada et al. 2005; Morishige et al., 2007; Pandit et al., 2019; Pandit et al., 2021). In order to identify potentially higher-performing enzymes for industrial use capable of converting glycolaldehyde to glycolic acid, we evaluated a plurality of candidates based on either close, medium, or distant phylogeny to ecoALDH (SEQ ID NO: 265). A subset of candidate enzymes were cloned, expressed, and purified, along with ecoALDH as a control, as described in Example 8.1, and their in vitro enzymatic activities were measured in a reaction mixture consisting of 50 mM glycolaldehyde in 100 mM Tris-HCl buffer (pH 8.5). The reaction was initiated by the addition of the purified enzyme, and activity was measured by monitoring the formation of glycolic acid over time. […]
# [3] = target: T3, Pseudomonas putida aldehyde dehydrogenase ppuALDH, SEQ ID NO: 267; assay: Aldehyde dehydrogenase (glycolaldehyde to glycolic acid) kinetics, ppuALDH; format: biochemical
# From the text: as §1
# as §3, with “Initial velocity patterns of the enzymatic reaction were obtained by varying the concentrations of ethylene glycol at fixed concentrations of enzyme concentration in the presence of the saturating NAD concentrations.” left out
# as §4, with “E. coli aldehyde dehydrogenase aldA (ecoALDH) has been reported to catalyze the intracellular enzymatic conversion of glycolaldehyde (GA) to glycolic acid (e.g., Wada et al. 2005; Morishige et al., 2007; Pandit et al., 2019; Pandit et al., 2021).” left out
# [4] = system: Gluconobacter oxydans zinc-dependent medium-chain alcohol dehydrogenase Gox0313, SEQ ID NO: 206; conditions: role: substrate, Zhang et al., 2015, cited from earlier work
# [5] = substrate: OCCO; assay: Alcohol dehydrogenase (EG oxidation) Michaelis-Menten kinetics, gdiADH; format: biochemical, Gluconobacter diazotrophicus; conditions: other: role: substrate, 100 mM Tris-HCl pH 8.5, 30 °C, saturating NAD, EG 1-100 mM
# From the text: as §1, §2
# (§5) The candidate alcohol dehydrogenase enzymes were next characterized for their enzymatic activity. […] Reactions were initiated by the addition of the purified enzyme and enzymatic activity was measured by monitoring the formation of the product (glycolaldehyde) over time as described in Example 8.1. […]
# [6] = substrate: OCCO; assay: Alcohol dehydrogenase (EG oxidation) Michaelis-Menten kinetics, goxADH; format: biochemical, Gluconobacter oxydans; conditions: other: role: substrate, 100 mM Tris-HCl pH 8.5, 30 °C, saturating NAD, EG 1-100 mM
# From the text: as §1, §2, §5
# [7] = substrate: OCCO; assay: Alcohol dehydrogenase (EG oxidation) Michaelis-Menten kinetics, gmoADH; format: biochemical, Gluconobacter morbifer; conditions: other: role: substrate, 100 mM Tris-HCl pH 8.5, 30 °C, saturating NAD, EG 1-100 mM
# From the text: as §1, §2, §5
# [8] = role: inhibitor, substrate inhibition, relative to ecoALDH
# [9] = role: substrate, relative to ecoALDH
# [10] = role: substrate, versus ecoALDH
molecule,measurement,setting,value
O=CCO [glycolaldehyde],Relative KI,"[1]; role: inhibitor, substrate inhibition",1.0
same,Relative kcat,[1]; role: substrate,1.0
same,"resistance to substrate inhibition, fold higher than ecoALDH","[2]; role: inhibitor, glycolaldehyde substrate inhibition, versus ecoALDH",5.6 fold
same,Relative KI,[2]; [8],5.6
same,Relative kcat,[2]; [9],5.3
same,"catalytic turnover rate, fold higher than ecoALDH",[2]; [10],5.3 fold
same,Relative KI,[3]; [8],1.3
same,Relative kcat,[3]; [9],5.8
same,"catalytic turnover rate, fold higher than ecoALDH",[3]; [10],5.8 fold
same,turnover and catalytic efficiency for glycolaldehyde as a substrate,[4]; compared to ethylene glycol,higher turnover and catalytic efficiency
same,affinity and catalytic rate for glycolaldehyde reduction to ethylene glycol,[4]; compared to the oxidation of ethylene glycol,higher affinity and catalytic rate
"Gluconobacter diazotrophicus alcohol dehydrogenase gdiADH, SEQ ID NO: 208 (Gluconacetobacter diazotrophicus PA1 5) (protein) MRSADTILGGTSMTGKMKAAVVREFGKPLTIEELDIPSIRPDQILVKMDACGVCHTDLHAARGDWPVKPNPPFIPGHEGVGHVVSVGSAVKWVKLGDVVGVPWLYSACGHCEHCLGGWETLCASQDDTGYTVNGCFAEYVVADPSYVAHLPKTIDPLQVAPVLCAGLTVYKGLKMTDTKPGDWVAVSGVGGLGQMAVQYGVAMGMNVIAVDIDDEKLATAKALGAALTVNARATDPAPFIQSQVGGAHGALVTAVSRSAFSQAMGFARRGGTIVLNGLPPGEFPISIFDMVMAGTTVRGSIVGTRLDMIEAVSFFADGKVKTVIEPDRLENINQIFTDLEEGKIQGRKVLDFRQ",Km,[5],230 ± 87 μM EG
same,Vmax,[5],7.5 ± 2.1 µmol/min/mg
"Gluconobacter oxydans alcohol dehydrogenase goxADH (Gox0313), SEQ ID NO: 206 (Gluconobacter oxydans 621H) (protein) MADTMLAAVVREFGKPLSIERLPIPDIKPHQILVKVDTCGVCHTDLHAARGDWPSKPNPPFIPGHEGVGHIVAVGSQVGDFVKTGDVVGVPWLYSACGHCEHCLGGWETLCEKQDDTGYTVNGCFAEYVVADPNYVAHLPSTIDPLQASPVLCAGLTVYKGLKMTEARPGQWVAVSGVGGLGQMAVQYAVAMGMNVVAVDIDDEKLATAKKLGASLTVNAKDTDPARFIQQQIGGAHGALVTAVGRTAFSQAMGYARRGGTIVLNGLPPGDFPVSIFDMVMNGTTIRGSIVGTRLDMIEAMDFFARGKVKSVVTPGKLENINTIFDDLQNGRLEGRTVLDFRS",Vmax,[6],2.0 ± 0.1 µmol/min/mg
"Gluconobacter morbifer alcohol dehydrogenase gmoADH, SEQ ID NO: 207 (Gluconobacter morbifer G707) (protein) MADTMQAAVVREFGKPLSIERVPVPEIRPNQILVKVETCGVCHTDLHAARGDWPTKPNPPFIPGHEGVGRIVALGSQVGDFVKVGDRVGVPWLYSACGHCEHCLGGWETLCEKQEDTGYSVNGCFAEYVAADPNYVAHLPENIDPLETSPVLCAGLTVYKGLKMTEARPGQWVAVSGIGGLGQMAVQYAVAMGMNVVAVDIDDGKLETAKKLGAVLTVNAKDRDPAKFVQQEIGGAHGALVTAVGRTAFAQAMGYARRGGTIVLNGLPPGDFPISIFDMVMNGTTVRGSIVGTRLDMIEALDFFARGKVKSVVTADKLENINTIFDNLQNGRLAGRTVLDFRS",Km,[7],200 ± 44 μM EG
same,Vmax,[7],4.9 ± 0.8 µmol/min/mg
